Test: Pharmacokinetics study
Assay type: in vivo, Balb/c male mice
Conditions: male, Balb/c, mouse, ip; 50 mg/kg i.p., plasma
Description: Pharmacokinetics study. Mass quantification analysis was carried out using an Agilent 6490 iFunnel triple quadrupole (QQQ) mass spectrometer equipped with an Agilent 1290 infinity II UHPLC. ZORBAX C18 (Eclipse Plus, 2.1×50 mm, 1.8 μm particle size) was used as analytical UHPLC column. The mobile phase was composed of 50% mixture of water (with 0.1% formic acid and 4 mM ammonium formate) and acetonitrile (0.1% formic acid). The flow rate of mobile phase was set at 0.5 mL/min and column temperature was adjusted at 30° C. The electrospray ionization source was operated in positive ion mode. […] For SU086-CD3 the [M+H]^+ ions were monitored at m/z 347.1 as the precursor ion and a fragment at m/z 198.1 as the product ion. […] Blood was collected retro-orbitally at 5, 15, 30, 60, 120, 360 and 720 minutes after injection in three mice per time point. Blood plasma was separated via centrifugation at 7,000 RPM for 10 minutes. Each plasma sample was mixed with SU086-CD3 internal standard. 10 μL of plasma was mixed with 190 μL MS-grade acetonitrile and vortexed 30 seconds followed by 5 minutes incubation at RT. Mixture was centrifuged at 11,000 RPM for 15 min at 4° C. and supernatant was collected and further cleaned by re-centrifugation. Each protein-free plasma fraction (n=3, from three independent mouse) was resolved using the HPLC/MS MRM method as described above.

half-life: 1 h
SMILES: COc1cc(OC)c(C(=O)/C=C/c2cccc([N+](=O)[O-])c2)c(OC)c1 [SU086]

From patent US20210347724A1, “METHOXYCHALCONE DERIVATIVES AND USES THEREOF” (The Board of Trustees of the Leland Stanford Junior …, priority 2020, published 2021)
